Source: patent publication US20070212428A1, “METHODS AND COMPOSITIONS FOR TREATING MOOD DISORDER” (MOOD MANAGEMENT SCIENCES, INC., priority 2004, published 2007)
Where a name gives a salt, the structure may show the parent alone.

Tests used:
[1] = test system: GABA uptake or degradation; details: cited from earlier work
[2] = test system: norepinephrine neuronal reuptake; details: cited from earlier work
[3] = test system: dopamine neuronal reuptake; details: cited from earlier work
GABAA or GABAB = details: cited from earlier work
monoamine oxidase = details: cited from earlier work
[4] = cited from earlier work; for elimination half-life: plasma; for oral absorption (in words): oral administration; for time to peak plasma concentration: after oral dosing; for time to steady state plasma concentrations: repeated dosing
[5] = test system: treatment resistant depression; assay: Example 11: case, treatment resistant depression; format: in vivo, human; details: under prior psychiatrist
[6] = test system: serotonin 5-HT2 and 5-HT3 receptors; details: cited from earlier work
[7] = test system: peripheral al adrenergic and muscarinic receptors; details: cited from earlier work
[8] = test system: central presynaptic a2 adrenergic inhibitory autoreceptors and heteroreceptors; details: cited from earlier work
[9] = test system: 5-HT1A and 5-HT1B receptors; details: cited from earlier work
histamine H1 receptor [10] = molecular target: T1, histamine H1 receptor (Homo sapiens, UniProt P35367); details: cited from earlier work
T1 sequence (P35367 whole entry, species assumed): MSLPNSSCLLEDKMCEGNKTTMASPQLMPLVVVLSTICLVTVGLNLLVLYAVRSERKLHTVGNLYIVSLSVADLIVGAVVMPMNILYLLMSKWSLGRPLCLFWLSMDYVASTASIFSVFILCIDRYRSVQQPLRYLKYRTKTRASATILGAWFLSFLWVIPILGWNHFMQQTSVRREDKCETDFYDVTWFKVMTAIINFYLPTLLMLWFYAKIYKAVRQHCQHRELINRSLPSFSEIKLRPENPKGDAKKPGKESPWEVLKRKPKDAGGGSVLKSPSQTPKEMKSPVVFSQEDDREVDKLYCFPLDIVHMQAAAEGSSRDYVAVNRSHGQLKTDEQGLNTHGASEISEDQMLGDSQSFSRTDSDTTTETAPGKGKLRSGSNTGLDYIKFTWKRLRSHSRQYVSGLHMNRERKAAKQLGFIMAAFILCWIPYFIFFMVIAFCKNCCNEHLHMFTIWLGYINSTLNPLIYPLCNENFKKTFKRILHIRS

[11] = test system: cholinergic muscarinic receptors; details: cited from earlier work
[12] = molecular target: serotonin 5-HT2A receptor (Homo sapiens, UniProt P28223); details: cited from earlier work
Chain of serotonin 5-HT2A receptor (P28223 whole entry): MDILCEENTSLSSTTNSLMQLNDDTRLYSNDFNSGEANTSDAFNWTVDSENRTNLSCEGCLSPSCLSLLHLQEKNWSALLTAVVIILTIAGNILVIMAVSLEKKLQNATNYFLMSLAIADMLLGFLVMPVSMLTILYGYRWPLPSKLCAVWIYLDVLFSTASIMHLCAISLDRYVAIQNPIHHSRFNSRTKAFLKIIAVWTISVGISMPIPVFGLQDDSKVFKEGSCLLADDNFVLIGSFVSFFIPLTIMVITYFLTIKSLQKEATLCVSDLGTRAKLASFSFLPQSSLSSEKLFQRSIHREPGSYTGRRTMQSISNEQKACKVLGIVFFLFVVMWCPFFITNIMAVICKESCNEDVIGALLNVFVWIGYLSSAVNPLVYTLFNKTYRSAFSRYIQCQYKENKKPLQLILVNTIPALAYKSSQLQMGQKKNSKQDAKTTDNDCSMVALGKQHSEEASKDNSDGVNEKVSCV

serotonin reuptake site = serotonin reuptake site (Homo sapiens, UniProt P31645); details: cited from earlier work
Chain of serotonin reuptake site (P31645 whole entry): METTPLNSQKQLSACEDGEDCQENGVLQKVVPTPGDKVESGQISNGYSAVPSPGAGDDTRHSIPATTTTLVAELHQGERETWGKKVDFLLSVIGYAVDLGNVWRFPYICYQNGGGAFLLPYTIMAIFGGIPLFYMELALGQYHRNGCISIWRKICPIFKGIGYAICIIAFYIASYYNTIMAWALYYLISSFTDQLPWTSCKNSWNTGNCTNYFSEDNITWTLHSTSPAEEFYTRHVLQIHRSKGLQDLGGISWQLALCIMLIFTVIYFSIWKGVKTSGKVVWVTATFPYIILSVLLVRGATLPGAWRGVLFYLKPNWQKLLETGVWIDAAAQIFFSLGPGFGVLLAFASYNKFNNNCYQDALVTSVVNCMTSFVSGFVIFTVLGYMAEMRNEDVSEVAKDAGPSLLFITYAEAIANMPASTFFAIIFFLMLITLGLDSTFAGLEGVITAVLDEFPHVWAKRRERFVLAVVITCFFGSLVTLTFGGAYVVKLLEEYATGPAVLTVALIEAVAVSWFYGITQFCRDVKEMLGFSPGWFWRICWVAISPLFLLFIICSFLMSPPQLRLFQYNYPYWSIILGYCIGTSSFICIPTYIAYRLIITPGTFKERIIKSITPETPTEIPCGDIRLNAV

[13] = cited from earlier work
bipolar I patients = details: cited from earlier work
status epilepticus = details: add-on therapy with other anti-epileptic drugs; cited from earlier work
[14] = test system: GABAA, BZD, and β adrenergic receptors; details: cited from earlier work
anxiety and depression = details: human, in vivo; cited from earlier work
[15] = test system: cholinergic, muscarinic, and benzodiazepine receptors; details: cited from earlier work
[16] = test system: dopamine D1 and haloperidol-sensitive sigma site; details: cited from earlier work
[17] = test system: serotonin 5-HT1C, 5-HT1D and 5-HT1A receptors; details: cited from earlier work
[18] = test system: cholinergic muscarinic or β1 and β2 adrenergic receptors; details: cited from earlier work
[19] = test system: treatment resistant depression; format: in vivo, human; details: 150 mg titrated up to 225 mg
[20] = test system: neuronal serotonin reuptake; details: cited from earlier work
[21] = test system: uptake of glutamate, or choline; details: cited from earlier work
[22] = test system: dopamine D1 and D2, muscarinic, serotonin 5HT1A, 5HT2, 5HT3, β-1 and 2 adrenergic, α-1 and α-2 adrenergic, histamine H2 and H3, adenosine A1 and A2, opiate μ …; details: cited from earlier work
[23] = test system: histamine H1, serotonin 5HT1B, benzodiazepine, and chloride channel receptors; details: cited from earlier work
[24] = test system: D2, 5-HT2A, and 5-HT1D receptors; details: cited from earlier work
5-HT1A receptor = 5-HT1A receptor (Homo sapiens, UniProt P08908); details: cited from earlier work
Chain of 5-HT1A receptor (P08908 whole entry): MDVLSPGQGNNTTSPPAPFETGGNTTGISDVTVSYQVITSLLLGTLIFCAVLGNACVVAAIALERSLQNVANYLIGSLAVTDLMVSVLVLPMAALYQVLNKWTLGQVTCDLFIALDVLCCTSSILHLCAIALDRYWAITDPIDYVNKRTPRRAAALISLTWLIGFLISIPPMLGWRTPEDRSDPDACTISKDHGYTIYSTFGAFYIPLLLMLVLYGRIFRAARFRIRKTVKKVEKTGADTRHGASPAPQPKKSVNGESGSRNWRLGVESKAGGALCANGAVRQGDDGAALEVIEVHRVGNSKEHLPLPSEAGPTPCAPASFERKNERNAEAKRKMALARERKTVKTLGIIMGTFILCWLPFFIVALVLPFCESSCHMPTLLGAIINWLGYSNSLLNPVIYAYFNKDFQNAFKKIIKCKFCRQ

[25] = test system: other receptor/binding sites tested, including the cholinergic muscarinic receptor; details: cited from earlier work
[26] = test system: dopamine D2 and D3, serotonin 5-HT2A, 5-HT2C, 5-HT1D and α-adrenergic receptors; details: cited from earlier work
histamine H1 receptor [27] = molecular target: T1, histamine H1 receptor; details: cited from earlier work; remark: listed apart in the source
[28] = maintenance treatment over eighteen months
[29] = quetiapine fumarate (150 mg BID) and divalproex (500 mg BID)

1-(aminoethyl)cyclohexaneacetic acid [gabapentin]
inhibition of GABA uptake or degradation [1]: not an inhibitor
effect on norepinephrine reuptake (in words) [2]: does not alter
effect on dopamine reuptake (in words) [3]: does not alter
effect on radioligand binding (GABAA or GABAB): does not modify

CC(NC(C)(C)C)C(=O)c1cccc(Cl)c1.Cl (racemic) [bupropion, (±)-1-(3-chlorophenyl)-2-[(1,1-dimethylethyl)amino]-1-propanone hydrochloride]
inhibition of monoamine oxidase (monoamine oxidase): does not inhibit
effect on norepinephrine reuptake (in words) [2]: relatively weak inhibitor
effect on dopamine reuptake (in words) [3]: relatively weak inhibitor
elimination half-life [4]: approximately 21 hours
symptomatic success in MDD, first episode [5]: modest symptomatic success

CN1CCN2c3ncccc3Cc3ccccc3C2C1 (racemic) [mirtazapine, 1,2,3,4,10,14b-hexahydro-2-mehtylpryazino [2.1-a] pyrido [2,3-c] benzazepine]
functional activity [6]: potent antagonist
functional activity [7]: moderate antagonist
functional activity [8]: antagonist
affinity [9]: no significant affinity
functional activity (histamine H1 receptor [10]): potent antagonist

O=C1CCc2ccc(OCCCCN3CCN(c4cccc(Cl)c4Cl)CC3)cc2N1 [aripiprazole, 7-[4-[4-(2,3-dichlorophenyl)-1-piperazinyl]butoxy]-3,4-dihydrocarbostyril]
affinity [11]: no appreciable affinity
functional activity [12]: antagonist
affinity (serotonin reuptake site): moderate affinity
pharmacokinetics ([13]; lithium (1200-1800 mg/day) for 21 days with aripiprazole (30 mg/day)): did not result in clinically significant changes
oral absorption (in words) [4]: well absorbed

Nc1nnc(-c2cccc(Cl)c2Cl)c(N)n1 [lamotrigine, 3,5-diamino-6-(2,3-dichlorophenyl)-1,2,4-triazine]
delay of time to occurrence of a mood episode (bipolar I patients; approximately 200 mg/day, ranging from 100 mg/day to 400 mg/day): effective in delaying the time to occurrence of a mood episode
mood pole against which predominantly effective (bipolar I patients; [28]): predominantly effective against depression
prevention of mood episodes compared with placebo (bipolar I patients; [28]): superior to placebo
plasma concentration generally effective in controlling SE (status epilepticus): about 24 μg/ml

Cc1cc2c(s1)Nc1ccccc1N=C2N1CCN(C)CC1 [olanzapine, 2-methyl-4-(4-methyl-1-piperazinyl)-10H-thieno[2,3-b][1,5]benzodiazepine]
binding [14]: binds weakly

CNCCCC1c2ccccc2C=Cc2ccccc21.Cl [protriptyline, N-methyl-5H-dibenzo[a,d]-cycloheptene-5-propanamine hydrochloride]
time to clinical effect (anxiety and depression): one week
time to significant plasma levels ([4]; human, in vivo): ≤ 2 h
oral absorption (in words) [4]: well absorbed

OCCOCCN1CCN(C2=Nc3ccccc3Sc3ccccc32)CC1 [quetiapine, 5-[2-(4-dibenzo[b,f][1,4]thiazepin-11-yl-1-piperazinyl)ethoxy]ethanol fumarate]
affinity [15]: no appreciable affinity
extent of absorption or mean oral clearance [13, 29]: without affecting
increase of mean maximum plasma concentration at steady state [13, 29]: 17%
steady-state pharmacokinetics ([13]; quetiapine fumarate (300 mg BID) with fluoxetine (60 mg once daily), haloperidol (7.5 mg BID) or risperidone (3 mg BID)): did not alter
time to peak plasma concentration [4]: 1.5 h
elimination half-life [4]: about 6 hours
time to steady state plasma concentrations [4]: two

Cc1nc2n(c(=O)c1CCN1CCC(c3noc4cc(F)ccc34)CC1)CCCC2 [risperidone, 3-[2-[4-(6-fluoro-1,2-benzisoxazol-3-yl)piperidino]ethyl]-2-methyl-6,7,8,9-tetrahydro-4H-pyrido-[1,2-a]pyrimidin-4-one]
affinity [16]: weak affinity
affinity [17]: low to moderate affinity
affinity [18]: no affinity

CN[C@H]1CC[C@@H](c2ccc(Cl)c(Cl)c2)c2ccccc21.Cl [sertraline, (1S-cis)-4-(3,4-dichlorophenyl)-1,2,3,4-tetrahydro-N-methyl-1-naphthylamine hydrochloride]
effect on norepinephrine reuptake (in words) [2]: weak effects
effect on dopamine reuptake (in words) [3]: weak effects
reduction of elimination in elderly patients ([4]; elderly patients): approximately 40%
elimination half-life [4]: about 26 hours
response of first episode of Treatment Resistant Depression [19]: partial response

Cc1ccsc1C(=CCCN1CCC[C@@H](C(=O)O)C1)c1sccc1C [tiagabine, (−)-®-1-[4,4-Bis(3-methyl-2-thienyl)-3-butenyl]nipecotic acid hydrochloride]
inhibition of serotonin reuptake (in words) [20]: does not significantly inhibit
effect on norepinephrine reuptake (in words) [2]: does not significantly inhibit
inhibition of uptake of glutamate or choline [21]: does not significantly inhibit
binding [22]: little or no binding
effect on dopamine reuptake (in words) [3]: does not significantly inhibit
time to peak plasma concentration [4]: approximately 45 minutes
fraction excreted in the feces ([4]; as metabolites): 63%
fraction excreted renally ([4]; as metabolites): 25%
fraction excreted unchanged ([4]; human, in vivo): 2%
oral absorption (in words) [4]: rapid
binding [23]: at concentrations greatly exceeding that is needed to inhibit the uptake of GABA

O=C1Cc2cc(CCN3CCN(c4nsc5ccccc45)CC3)c(Cl)cc2N1 [ziprasidone, 5-[2-[4-(1,2-benzoisothiazol-3-yl)-1-piperazinyl]ethyl]-6-chloro-1,3-dihydro-2H-indol-2-one]
inhibition of serotonin reuptake (in words) [20]: inhibited
effect on norepinephrine reuptake (in words) [2]: inhibited
functional activity [24]: antagonist
functional activity (5-HT1A receptor): agonist
affinity [25]: No appreciable affinity
elimination half-life [4]: about 7 hours
time to steady state plasma concentrations [4]: one to three
in vitro binding affinity [26]: high in vitro binding affinity
in vitro binding affinity (histamine H1 receptor [27]): moderate affinity
